In patent US20250122183A1 (Pfizer Inc., priority 2023, published 2025) one finds Ki data, which are given here for 22 compounds.

Holding throughout (assay type): biochemical
In one assay the target is KAT6A Full length enzyme (Homo sapiens (Human), UniProt Q92794). Kind of assay: KAT6A assay (SAMDI-MS acetylation of H3 1-21 peptide). The conditions noted are these: Morrison equation fit; replicate number in parentheses; read-out: KAT6A Ki (nM) (replicate number).
The target of assay [1] is KAT7+JADE1+EAF6+ING5 4 protein complex (Homo sapiens (Human), UniProt O95251). The assay is described as follows: KAT7 JADE1 assay (SAMDI-MS acetylation of H3 1-21 peptide). The conditions noted are these: Morrison equation fit; replicate number in parentheses; read-out: KAT7 JADE1 Ki (nM) (replicate number).
The target in another assay is KAT8 Full length enzyme (Homo sapiens (Human), UniProt Q9H7Z6). The assay is described as follows: KAT8 assay (SAMDI-MS acetylation of H3 1-21 peptide). The conditions noted are these: Morrison equation fit; replicate number in parentheses; read-out: KAT8 Ki (nM) (replicate number).
Sequence of KAT8 Full length enzyme (Q9H7Z6 whole entry): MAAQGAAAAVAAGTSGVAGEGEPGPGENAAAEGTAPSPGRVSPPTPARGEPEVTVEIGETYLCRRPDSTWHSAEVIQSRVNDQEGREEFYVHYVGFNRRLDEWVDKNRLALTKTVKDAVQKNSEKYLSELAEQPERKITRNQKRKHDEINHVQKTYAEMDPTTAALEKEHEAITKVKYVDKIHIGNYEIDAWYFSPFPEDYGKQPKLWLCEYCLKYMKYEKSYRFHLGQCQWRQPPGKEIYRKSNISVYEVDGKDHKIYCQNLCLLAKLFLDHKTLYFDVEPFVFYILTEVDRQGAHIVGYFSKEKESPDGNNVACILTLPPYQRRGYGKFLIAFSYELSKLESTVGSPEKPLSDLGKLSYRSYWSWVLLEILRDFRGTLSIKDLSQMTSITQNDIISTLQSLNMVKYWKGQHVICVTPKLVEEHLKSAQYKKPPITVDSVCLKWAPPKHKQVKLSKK
The target in the next assay is KAT5 Full length enzyme (Homo sapiens (Human), UniProt Q92993). Kind of assay: KAT5 assay (SAMDI-MS acetylation of H4 1-21 peptide). The conditions noted are these: Morrison equation fit; replicate number in parentheses; read-out: KAT5 Ki (nM) (replicate number).
Sequence of KAT5 Full length enzyme (Q92993 whole entry): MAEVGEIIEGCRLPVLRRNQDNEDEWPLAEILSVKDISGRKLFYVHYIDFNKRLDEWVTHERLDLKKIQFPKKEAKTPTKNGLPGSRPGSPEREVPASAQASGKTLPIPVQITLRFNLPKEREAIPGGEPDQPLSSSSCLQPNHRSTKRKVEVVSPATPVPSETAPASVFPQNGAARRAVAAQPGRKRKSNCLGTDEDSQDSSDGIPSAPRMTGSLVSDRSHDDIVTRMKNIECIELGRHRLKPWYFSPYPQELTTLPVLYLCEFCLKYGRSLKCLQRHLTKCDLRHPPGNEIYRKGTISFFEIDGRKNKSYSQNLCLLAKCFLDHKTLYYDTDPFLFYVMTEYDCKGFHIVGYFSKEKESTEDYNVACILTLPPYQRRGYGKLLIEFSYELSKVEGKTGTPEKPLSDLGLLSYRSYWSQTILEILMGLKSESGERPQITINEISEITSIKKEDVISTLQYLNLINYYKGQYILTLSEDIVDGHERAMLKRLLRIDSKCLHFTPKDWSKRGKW

Sequence of KAT6A Full length enzyme (Q92794 other isoform, or with tags, fused parts or gaps): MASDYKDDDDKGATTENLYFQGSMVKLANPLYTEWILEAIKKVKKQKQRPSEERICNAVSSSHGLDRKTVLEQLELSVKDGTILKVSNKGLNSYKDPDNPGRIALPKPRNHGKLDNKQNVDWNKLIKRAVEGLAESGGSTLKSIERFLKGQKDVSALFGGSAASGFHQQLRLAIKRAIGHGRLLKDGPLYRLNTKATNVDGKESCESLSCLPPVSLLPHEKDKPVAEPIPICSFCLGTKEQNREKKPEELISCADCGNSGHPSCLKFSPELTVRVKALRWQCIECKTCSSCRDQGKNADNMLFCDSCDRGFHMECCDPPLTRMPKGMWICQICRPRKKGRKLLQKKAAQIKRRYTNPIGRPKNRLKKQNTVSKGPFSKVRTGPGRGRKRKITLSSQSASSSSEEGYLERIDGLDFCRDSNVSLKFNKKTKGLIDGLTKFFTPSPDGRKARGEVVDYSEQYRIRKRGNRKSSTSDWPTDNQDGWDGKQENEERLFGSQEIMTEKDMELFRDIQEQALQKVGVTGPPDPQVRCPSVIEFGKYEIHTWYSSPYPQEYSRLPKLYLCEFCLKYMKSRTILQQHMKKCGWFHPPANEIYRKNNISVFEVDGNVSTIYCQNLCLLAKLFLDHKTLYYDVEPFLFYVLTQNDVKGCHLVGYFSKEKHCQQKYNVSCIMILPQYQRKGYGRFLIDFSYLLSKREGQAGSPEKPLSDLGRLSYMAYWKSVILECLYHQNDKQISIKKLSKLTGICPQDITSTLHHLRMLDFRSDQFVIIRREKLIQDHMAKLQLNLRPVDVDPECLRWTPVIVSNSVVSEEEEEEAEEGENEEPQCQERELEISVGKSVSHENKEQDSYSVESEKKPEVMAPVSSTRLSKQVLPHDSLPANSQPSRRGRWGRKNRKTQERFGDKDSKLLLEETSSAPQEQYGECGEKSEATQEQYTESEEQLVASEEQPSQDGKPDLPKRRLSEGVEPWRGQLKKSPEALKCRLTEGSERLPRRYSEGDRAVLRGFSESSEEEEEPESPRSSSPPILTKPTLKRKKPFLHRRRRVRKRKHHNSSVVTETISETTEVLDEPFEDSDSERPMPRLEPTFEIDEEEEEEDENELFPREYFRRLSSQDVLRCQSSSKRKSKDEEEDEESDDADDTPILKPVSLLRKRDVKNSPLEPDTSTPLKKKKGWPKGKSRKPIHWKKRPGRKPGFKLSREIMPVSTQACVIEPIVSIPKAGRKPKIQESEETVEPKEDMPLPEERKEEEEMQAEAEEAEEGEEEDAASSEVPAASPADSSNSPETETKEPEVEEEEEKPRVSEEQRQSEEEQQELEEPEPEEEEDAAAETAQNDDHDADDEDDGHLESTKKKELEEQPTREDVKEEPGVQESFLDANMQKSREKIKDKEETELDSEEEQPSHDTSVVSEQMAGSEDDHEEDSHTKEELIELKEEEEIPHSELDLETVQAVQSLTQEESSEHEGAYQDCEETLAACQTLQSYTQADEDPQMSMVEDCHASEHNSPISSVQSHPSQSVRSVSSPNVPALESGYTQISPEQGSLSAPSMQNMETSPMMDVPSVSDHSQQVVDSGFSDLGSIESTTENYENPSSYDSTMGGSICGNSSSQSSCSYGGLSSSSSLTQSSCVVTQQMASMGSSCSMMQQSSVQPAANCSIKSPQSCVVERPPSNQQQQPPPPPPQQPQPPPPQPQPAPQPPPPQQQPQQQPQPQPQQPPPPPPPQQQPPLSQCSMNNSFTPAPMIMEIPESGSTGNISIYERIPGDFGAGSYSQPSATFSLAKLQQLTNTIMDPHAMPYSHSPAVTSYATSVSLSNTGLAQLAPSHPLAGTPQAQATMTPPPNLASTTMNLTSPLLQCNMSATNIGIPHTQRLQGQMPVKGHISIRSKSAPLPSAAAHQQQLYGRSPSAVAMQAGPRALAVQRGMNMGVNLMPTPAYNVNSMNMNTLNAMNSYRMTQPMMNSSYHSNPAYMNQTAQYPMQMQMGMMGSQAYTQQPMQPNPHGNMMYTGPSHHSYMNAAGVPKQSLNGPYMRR

As to `COc1cc2c(NS(=O)(=O)c3c(OC)cccc3OC)noc2cc1Nc1cc2n(n1)CCC21CC1` [Example 112, N-{6-[(5′,6′-dihydrospiro[cyclopropane-1,4′-pyrrolo[1,2-b]pyrazol]-2′-yl)amino]-5-methoxy-1,2-benzoxazol-3-yl}-2,6-dimethoxybenzene-1-sulfonamide], the Ki was 17.6 nM on KAT6A Full length enzyme, 238 nM in assay [1], above 13000 nM on KAT8 Full length enzyme and 689 nM on KAT5 Full length enzyme.
On the same counts, the results for `CCn1nc(Nc2cc3onc(NS(=O)(=O)c4c(OC)cccc4OC)c3cc2OC)cc1C1CC1` [Example 113, N-{6-[(5-cyclopropyl-1-ethyl-1H-pyrazol-3-yl)amino]-5-methoxy-1,2-benzoxazol-3-yl}-2,6-dimethoxybenzene-1-sulfonamide] are 348 nM, 9090 nM, above 13000 nM and 50000 nM.
On the same counts, the results for `COc1cc2c(NS(=O)(=O)c3c(OC)cccc3OC)noc2cc1Nc1cc(C(F)F)n[nH]1` [Example 115, N-(6-{[3-(difluoromethyl)-1H-pyrazol-5-yl]amino}-5-methoxy-1,2-benzoxazol-3-yl)-2,6-dimethoxybenzene-1-sulfonamide] are 0.1 nM, 32.2 nM, 8920 nM and 101 nM.
On the same counts, the results for `COc1cc2c(NS(=O)(=O)c3c(OC)cccc3OC)noc2cc1Nc1cc(C(C)(C)C)n[nH]1` [Example 116, N-{6-[(3-tert-butyl-1H-pyrazol-5-yl)amino]-5-methoxy-1,2-benzoxazol-3-yl}-2,6-dimethoxybenzene-1-sulfonamide] are 11.8 nM, 98 nM, 7900 nM and 546 nM.
For the compound `COc1cc2c(NS(=O)(=O)c3c(OC)cccc3OC)noc2cc1Nc1cc(C2CC(F)(F)C2)[nH]n1` [Example 117, N-(6-{[5-(3,3-difluorocyclobutyl)-1H-pyrazol-3-yl]amino}-5-methoxy-1,2-benzoxazol-3-yl)-2,6-dimethoxybenzene-1-sulfonamide], the inhibition constant Ki at KAT6A Full length enzyme came out at 5.3 nM; in assay [1], 25.1 nM; at KAT8 Full length enzyme it was 10000 nM; at KAT5 Full length enzyme, 360 nM.
The like results for `COc1cc2c(NS(=O)(=O)c3c(OC)cc(-c4ccccn4)cc3OC)noc2cc1Nc1cc(C2CC2)n[nH]1` [Example 118, N-{6-[(3-cyclopropyl-1H-pyrazol-5-yl)amino]-5-methoxy-1,2-benzoxazol-3-yl}-2,6-dimethoxy-4-(pyridin-2-yl)benzene-1-sulfonamide] were, in that order, 0.9 nM, 8.1 nM, 731 nM and 66.1 nM.
With `COc1cc2c(NS(=O)(=O)c3c(OC)cc(-c4ccccc4)cc3OC)noc2cc1Nc1cc(C2CC2)n[nH]1` [Example 119, N-{6-[(3-cyclopropyl-1H-pyrazol-5-yl)amino]-5-methoxy-1,2-benzoxazol-3-yl}-3,5-dimethoxy[1,1′-biphenyl]-4-sulfonamide], the inhibition constant Ki was found to be 0.2 nM on KAT6A Full length enzyme, 3.6 nM in assay [1], 156 nM on KAT8 Full length enzyme and 19.4 nM on KAT5 Full length enzyme.
The like results for `COc1cc2c(NS(=O)(=O)c3c(OC)cc(-c4ccncc4)cc3OC)noc2cc1Nc1cc(C2CC2)n[nH]1` [Example 120, N-{6-[(3-cyclopropyl-1H-pyrazol-5-yl)amino]-5-methoxy-1,2-benzoxazol-3-yl}-2,6-dimethoxy-4-(pyridin-4-yl)benzene-1-sulfonamide] were, in that order, 0.8 nM, 10.8 nM, 640 nM and 236 nM.
On the same counts, the results for `COc1cc2c(NS(=O)(=O)c3c(OC)cc(-c4cnn(C)c4)cc3OC)noc2cc1Nc1cc(C2CC2)n[nH]1` [Example 123, N-{6-[(3-cyclopropyl-1H-pyrazol-5-yl)amino]-5-methoxy-1,2-benzoxazol-3-yl}-2,6-dimethoxy-4-(1-methyl-1H-pyrazol-4-yl)benzene-1-sulfonamide] are 0.8 nM, 10.4 nM, 189 nM and 246 nM.
On the same counts, the results for `CCc1cc(Nc2cc3onc(NS(=O)(=O)c4ccc(C(F)(F)F)cc4Cl)c3cc2OC)n[nH]1` [Example 124, 2-chloro-N-{6-[(5-ethyl-1H-pyrazol-3-yl)amino]-5-methoxy-1,2-benzoxazol-3-yl}-4-(trifluoromethyl)benzene-1-sulfonamide] are 51.3 nM, 47.9 nM, 8220 nM and 4570 nM.
Take `CCc1cc(Nc2cc3onc(NS(=O)(=O)c4cccc(Oc5ccccc5C)c4)c3cc2OC)n[nH]1` [Example 125, N-{6-[(5-ethyl-1 H-pyrazol-3-yl)amino]-5-methoxy-1,2-benzoxazol-3-yl}-3-(2-methylphenoxy)benzene-1-sulfonamide]: the Ki was 48.6 nM on KAT6A Full length enzyme, 180 nM in assay [1], above 13000 nM on KAT8 Full length enzyme and 5090 nM at KAT5 Full length enzyme.
The like results for `CCc1cc(Nc2cc3onc(NS(=O)(=O)c4cccc(Oc5ccc(C)cc5)c4)c3cc2OC)n[nH]1` [Example 126, N-{6-[(5-ethyl-1 H-pyrazol-3-yl)amino]-5-methoxy-1,2-benzoxazol-3-yl}-3-(4-methylphenoxy)benzene-1-sulfonamide] were, in that order, 52.1 nM, 237 nM, above 13000 nM and 5040 nM.
The like results for `CCCc1ccc(S(=O)(=O)Nc2noc3cc(Nc4cc(CC)[nH]n4)c(OC)cc23)cc1` [Example 127, N-{6-[(5-ethyl-1 H-pyrazol-3-yl)amino]-5-methoxy-1,2-benzoxazol-3-yl}-4-propylbenzene-1-sulfonamide] were, in that order, 32.8 nM, 175 nM, above 13000 nM and 3940 nM.
For the compound `CCc1cc(Nc2cc3onc(NS(=O)(=O)c4cccc(Oc5ccc(F)cc5)c4)c3cc2OC)n[nH]1` [Example 128, N-{6-[(5-ethyl-1 H-pyrazol-3-yl)amino]-5-methoxy-1,2-benzoxazol-3-yl}-3-(4-fluorophenoxy)benzene-1-sulfonamide], the Ki at KAT6A Full length enzyme is 38.1 nM; in assay [1], 212 nM; on KAT8 Full length enzyme it was above 13000 nM; at KAT5 Full length enzyme it was 7830 nM.
On to `CCc1cc(Nc2cc3onc(NS(=O)(=O)c4ccc5c(c4)OCCO5)c3cc2OC)n[nH]1` [Example 129, N-{6-[(5-ethyl-1 H-pyrazol-3-yl)amino]-5-methoxy-1,2-benzoxazol-3-yl}-2,3-dihydro-1,4-benzodioxine-6-sulfonamide], for which the inhibition constant (Ki) at KAT6A Full length enzyme was 56.8 nM; in assay [1], 244 nM; at KAT8 Full length enzyme it was above 13000 nM; at KAT5 Full length enzyme, 5630 nM.
On the same counts, the results for `CCc1cc(Nc2cc3onc(NS(=O)(=O)c4ccc(-c5ccccc5)cc4)c3cc2OC)n[nH]1` [Example 130, N-{6-[(5-ethyl-1 H-pyrazol-3-yl)amino]-5-methoxy-1,2-benzoxazol-3-yl}[1,1′-biphenyl]-4-sulfonamide] are 13 nM, 85.2 nM, 7520 nM and 2010 nM.
The like results for `CCc1cc(Nc2cc3onc(NS(=O)(=O)c4ccc(Oc5ccccc5)cc4)c3cc2OC)n[nH]1` [Example 132, N-{6-[(5-ethyl-1 H-pyrazol-3-yl)amino]-5-methoxy-1,2-benzoxazol-3-yl}-4-phenoxybenzene-1-sulfonamide] were, in that order, 82.7 nM, 410 nM, above 13000 nM and 5520 nM.
On the same counts, the results for `CCc1cc(Nc2cc3onc(NS(=O)(=O)c4ccc(OC)c(F)c4)c3cc2OC)n[nH]1` [Example 133, N-{6-[(5-ethyl-1 H-pyrazol-3-yl)amino]-5-methoxy-1,2-benzoxazol-3-yl}-3-fluoro-4-methoxybenzene-1-sulfonamide] are 78.7 nM, 321 nM, above 13000 nM and 6210 nM.
As to `CCc1cc(Nc2cc3onc(NS(=O)(=O)c4cc(Cl)ccc4Cl)c3cc2OC)n[nH]1` [Example 134, 2,5-dichloro-N-{6-[(5-ethyl-1 H-pyrazol-3-yl)amino]-5-methoxy-1,2-benzoxazol-3-yl}benzene-1-sulfonamide], the Ki at KAT6A Full length enzyme is 34.3 nM; in assay [1], 185 nM; at KAT8 Full length enzyme, 9800 nM; on KAT5 Full length enzyme, 4550 nM.
The like results for `CCc1cc(Nc2cc3onc(NS(=O)(=O)c4cc(F)ccc4Br)c3cc2OC)n[nH]1` [Example 135, 2-bromo-N-{6-[(5-ethyl-1H-pyrazol-3-yl)amino]-5-methoxy-1,2-benzoxazol-3-yl}-5-fluorobenzene-1-sulfonamide] were, in that order, 52.6 nM, 156 nM, above 13000 nM and 3080 nM.
The like results for `CCc1ccc(S(=O)(=O)Nc2noc3cc(Nc4cc(CC)[nH]n4)c(OC)cc23)cc1` [Example 136, 4-ethyl-N-{6-[(5-ethyl-1 H-pyrazol-3-yl)amino]-5-methoxy-1,2-benzoxazol-3-yl}benzene-1-sulfonamide] were, in that order, 16.3 nM, 92.7 nM, above 13000 nM and 2940 nM.
On the same counts, the results for `CCc1cc(Nc2cc3onc(NS(=O)(=O)c4cccc(-c5ccc(OC)cc5)c4)c3cc2OC)[nH]n1` [Example 137, N-{6-[(3-ethyl-1 H-pyrazol-5-yl)amino]-5-methoxy-1,2-benzoxazol-3-yl}-4′-methoxy[1,1′-biphenyl]-3-sulfonamide] are 12.9 nM, 9.7 nM, above 13000 nM and 1650 nM.
